From ChEMBL document CHEMBL1201862, “PubChem BioAssay data set” (2004)
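Five compound concentrations were applied to cells in 96-well plates for 48 hours; endpoints were derived by simple linear interpolation of the resulting dose-response curve. Here, GI50 denotes the concentration required for 50% inhibition of growth.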 Activity calls are given as the source filed them. Rule as the data show it: active = GI50 up to about 1.1 µM and inactive = higher.

What was measured:
Assay in all cases: DTP human tumour cell line panel, 48 h
LOX IMVI = tested on: LOX IMVI
MDA-MB-435 = tested on: MDA-MB-435
LXFL 529 = tested on: LXFL 529
CCRF-CEM = tested on: CCRF-CEM
ACHN = tested on: ACHN
UO-31 = tested on: UO-31
MCF7 = tested on: MCF7
TK-10 = tested on: TK-10
BT-549 = tested on: BT-549
DMS-273 = tested on: DMS-273
NCI-H522 = tested on: NCI-H522
SR = tested on: SR
UACC-257 = tested on: UACC-257
RXF 393 = tested on: RXF 393
MDA-MB-231 = tested on: MDA-MB-231
DU-145 = tested on: DU-145
Hs-578T = tested on: Hs-578T
DMS-114 = tested on: DMS-114
SK-MEL-2 = tested on: SK-MEL-2
RPMI-8226 = tested on: RPMI-8226
NCI-H460 = tested on: NCI-H460
MDA-N = tested on: MDA-N
KM-20L2 = tested on: KM-20L2
MOLT-4 = tested on: MOLT-4
SNB-19 = tested on: SNB-19
OVCAR-4 = tested on: OVCAR-4
SK-MEL-5 = tested on: SK-MEL-5
HT-29 = tested on: HT-29
SNB-75 = tested on: SNB-75
U-251 = tested on: U-251
NCI-H226 = tested on: NCI-H226
OVCAR-8 = tested on: OVCAR-8
HL-60 = tested on: HL-60
COLO 205 = tested on: COLO 205
786-0 = tested on: 786-0
SK-OV-3 = tested on: SK-OV-3
K562 = tested on: K562
HCT-15 = tested on: HCT-15
EKVX = tested on: EKVX
M14 = tested on: M14
DLD-1 = tested on: DLD-1
SF-268 = tested on: SF-268
IGROV-1 = tested on: IGROV-1
NCI/ADR-RES = tested on: NCI/ADR-RES
PC-3 = tested on: PC-3
A498 = tested on: A498
SN12C = tested on: SN12C
A549 = tested on: A549
SNB-78 = tested on: SNB-78
HOP-92 = tested on: HOP-92
OVCAR-3 = tested on: OVCAR-3
SK-MEL-28 = tested on: SK-MEL-28
HCT-116 = tested on: HCT-116
KM12 = tested on: KM12
HOP-62 = tested on: HOP-62
SF-539 = tested on: SF-539
SF-295 = tested on: SF-295
HCC 2998 = tested on: HCC 2998
UACC-62 = tested on: UACC-62
SW-620 = tested on: SW-620
HOP-18 = tested on: HOP-18
NCI-H23 = tested on: NCI-H23
M19-MEL = tested on: M19-MEL
T47D = tested on: T47D
CAKI-1 = tested on: CAKI-1
OVCAR-5 = tested on: OVCAR-5
Malme-3M = tested on: Malme-3M

`CCCCCCCC(CC(=O)NC(CO)C(=O)NC(CO)CC(C)C)OC(=O)CC(CCCCCCC)OC(=O)CC(CCCCCCC)OC1OC(C)C(O)C(OC2OC(C)C(O)C(O)C2O)C1O` (configuration not stated) was tested, and the GI50 (LOX IMVI) was 5.28 µM (inactive), the GI50 (MDA-MB-435) was 6.52 µM (inactive) and the GI50 (LXFL 529) was 4.84 µM (inactive). For the same compound, the GI50 (CCRF-CEM) was 3.37 µM (inactive), the GI50 (ACHN) was 12.2 µM (inactive) and the GI50 (UO-31) was 16.6 µM (inactive). The GI50 (MCF7) was 0.614 µM (active), the GI50 (TK-10) was 16.5 µM (inactive) and the GI50 (BT-549) was 14.5 µM (inactive). For the same compound, the GI50 (DMS-273) was 10.9 µM (inactive), the GI50 (NCI-H522) was 13 µM (inactive) and the GI50 (SR) was 3.05 µM (inactive). For the same compound, the GI50 (UACC-257) was 12.3 µM (inactive), the GI50 (RXF 393) was 13.7 µM (inactive) and the GI50 (MDA-MB-231) was 13.2 µM (inactive). The GI50 (DU-145) was 12.6 µM (inactive), the GI50 (Hs-578T) was 8.45 µM (inactive) and the GI50 (DMS-114) was 3.83 µM (inactive). For the same compound, the GI50 (SK-MEL-2) was 3.76 µM (inactive), the GI50 (RPMI-8226) was 2.37 µM (inactive) and the GI50 (NCI-H460) was 6.73 µM (inactive). The GI50 (MDA-N) was 6.92 µM (inactive), the GI50 (KM-20L2) was 15.7 µM (inactive) and the GI50 (MOLT-4) was 3.06 µM (inactive). For the same compound, the GI50 (SNB-19) was 12.2 µM (inactive), the GI50 (OVCAR-4) was 12.6 µM (inactive) and the GI50 (SK-MEL-5) was 7.83 µM (inactive). The GI50 (HT-29) was 9.16 µM (inactive), the GI50 (SNB-75) was 10.5 µM (inactive) and the GI50 (U-251) was 11.1 µM (inactive). The GI50 (NCI-H226) was 16.6 µM (inactive), the GI50 (OVCAR-8) was 16.3 µM (inactive) and the GI50 (HL-60) was 3.26 µM (inactive). For the same compound, the GI50 (COLO 205) was 8.87 µM (inactive), the GI50 (786-0) was 14.3 µM (inactive) and the GI50 (SK-OV-3) was 17.6 µM (inactive). The GI50 (K562) was 5.12 µM (inactive), the GI50 (HCT-15) was 19.7 µM and the GI50 (EKVX) was 24.6 µM (inactive). For the same compound, the GI50 (M14) was 5.05 µM (inactive), the GI50 (DLD-1) was 16 µM (inactive) and the GI50 (SF-268) was 8.41 µM (inactive). The GI50 (IGROV-1) was 12.6 µM (inactive), the GI50 (NCI/ADR-RES) was 17.9 µM (inactive) and the GI50 (PC-3) was 12.7 µM (inactive). The GI50 (A498) was 18.7 µM (inactive), the GI50 (SN12C) was 14.5 µM (inactive) and the GI50 (A549) was 15.8 µM (inactive). For the same compound, the GI50 (SNB-78) was 20.2 µM (inactive), the GI50 (HOP-92) was 12 µM (inactive) and the GI50 (OVCAR-3) was 13.9 µM (inactive). The GI50 (SK-MEL-28) was 7.94 µM (inactive), the GI50 (HCT-116) was 7.53 µM (inactive) and the GI50 (KM12) was 11.7 µM (inactive). For the same compound, the GI50 (HOP-62) was 18.9 µM (inactive), the GI50 (SF-539) was 11.7 µM (inactive) and the GI50 (SF-295) was 14 µM (inactive). For the same compound, the GI50 (HCC 2998) was 1.52 µM (inactive), the GI50 (UACC-62) was 14.1 µM (inactive) and the GI50 (SW-620) was 15.7 µM (inactive). For the same compound, the GI50 (HOP-18) was 17.6 µM (inactive), the GI50 (NCI-H23) was 14.3 µM (inactive) and the GI50 (M19-MEL) was 10.4 µM (inactive). The GI50 (T47D) was 10.9 µM (inactive), the GI50 (CAKI-1) was 18.4 µM (inactive) and the GI50 (OVCAR-5) was 13.1 µM (inactive). For the same compound, the GI50 (Malme-3M) was 9.66 µM (inactive).

In the case of `Cc1c2cc[n+](C)cc2c(C)c2c1[nH]c1ccc(OC(C)C)cc12`, the GI50 (LOX IMVI) is reported as 6.95 µM (inactive), the GI50 (LXFL 529) is reported as 0.875 µM (active) and the GI50 (ACHN) is reported as 16.1 µM (inactive). For the same compound, the GI50 (UO-31) was 27.3 µM (inactive), the GI50 (TK-10) was 39.3 µM (inactive) and the GI50 (DMS-273) was 2.69 µM (inactive). For the same compound, the GI50 (NCI-H522) was 1.98 µM (inactive), the GI50 (UACC-257) was 2.82 µM (inactive) and the GI50 (SK-MEL-2) was 2.56 µM (inactive). For the same compound, the GI50 (RPMI-8226) was 7.74 µM (inactive), the GI50 (NCI-H460) was 2.6 µM (inactive) and the GI50 (KM-20L2) was 4.72 µM (inactive). The GI50 (MOLT-4) was 5.18 µM (inactive), the GI50 (OVCAR-4) was 3.85 µM (inactive) and the GI50 (SK-MEL-5) was 1.48 µM (inactive). The GI50 (HT-29) was 4.25 µM (inactive), the GI50 (SNB-75) was 0.384 µM (active) and the GI50 (HL-60) was 2.43 µM (inactive). The GI50 (COLO 205) was 1.39 µM (inactive), the GI50 (HCT-15) was greater than 58.2 µM and the GI50 (EKVX) was 5.06 µM (inactive). The GI50 (M14) was 10.4 µM (inactive), the GI50 (SF-268) was 0.418 µM (active) and the GI50 (IGROV-1) was 2.55 µM (inactive). The GI50 (A498) was 12 µM (inactive), the GI50 (SN12C) was 0.542 µM (active) and the GI50 (A549) was 3.44 µM (inactive). For the same compound, the GI50 (HOP-92) was 3.01 µM (inactive), the GI50 (OVCAR-3) was 3.1 µM (inactive) and the GI50 (SK-MEL-28) was 4.42 µM (inactive). For the same compound, the GI50 (HCT-116) was 3.77 µM (inactive), the GI50 (KM12) was 2.75 µM (inactive) and the GI50 (SF-539) was 1.01 µM (active). For the same compound, the GI50 (UACC-62) was 2.71 µM (inactive), the GI50 (SW-620) was 3.12 µM (inactive) and the GI50 (HOP-18) was 3.75 µM (inactive). The GI50 (NCI-H23) was 2.51 µM (inactive), the GI50 (M19-MEL) was 2.09 µM (inactive) and the GI50 (OVCAR-5) was 12.9 µM (inactive). The GI50 (Malme-3M) was 1.97 µM (inactive).
